Data set [1] concerns barrier function of the skin. Kind of data set: Transepidermal water loss (TEWL) measurement on skin biopsies in inserts. Format: cell-based. To be noted: biopsy edges sealed with Loctite super glue. An excerpt: The purpose of this example is to incorporate sealed sensors into an insert. Sealing the biopsy edge using Loctite super glue, as shown in the photograph in FIG. 18A and the histology stain image in FIG. 18B, allowed the measurement of changes in barrier function with sensitivity, as well as preventing leakage of topically-applied substances into the dermis through the edge of the biopsy as well as allowing for the precise measurement of changes in the barrier function of the skin using clinical sensors.
FIGS. 19A-19B illustrate measurements of transepidermal water loss (TEWL) in model skin that were either not sealed or sealed using Loctite super glue, respectively. TEWL measurements were taken using a Courage+Khazaka Multi Probe Adapter MPA 10. […] FIG. 20 show a comparison in TEWL measurements of the effects of a barrier enhancer (Niacinamide) and a barrier disrupter (SDS) on skin sealed with Loctite super glue over a six-day period.

The test system of data set [2] is normal skin tissue in an insert. Kind of data set: Skin irritation: histopathological scoring of H&E stained skin tissue. Format: cell-based. The following applies: 2% for 24 hours, topical; compared to the control group. Here is the method: (§1) The purpose of this example is to test and replicate dynamic changes in skin across various types of clinically relevant stimuli, including skin irritations, intradermal injection. cosmetic product treatment, and antioxidant defense. Approximations of skin irritation evaluated in this manner include topical chemical treatment 261, burn treatment 262, and UV treatment 263, as illustrated in FIGS. 26A-26C, respectively. Chemical irritation was approximated through application of 2% SDS for 24 hours, burns were approximated through 100° C, contact with a heated metal rod for 45 seconds, and UV irritation was approximated via UVA and UV application for 30 minutes. […] Skin tissues were evaluated and scored using the parameters in Table 9 as provided above. Include protocol, histological parameters, histology staining and scoring results, immune and inflammatory responses, antioxidant defense assessment, etc.
FIGS. 28A-28D provide H&E stained tissues for a first selection of untreated. chemical-treated, burn-treated, and UV-treated skin tissue samples, respectively. A pathological analysis of the extent of damage was undertaken and is shown in FIGS. 29A-29C to evaluate epidermal damage, eczematous epidermis, and epidermis thickness, respectively, after application of damage stimuli. […] UV irradiation caused epidermal thinning compared to the control group.

Data set [3] relates to skin tissues. Kind of data set: Skin irritation: collagen deposition by histopathological scoring (Masson's Trichrome). The following applies: 2% for 24 hours; compared to the untreated group. Format: cell-based. Here is the method: as §1
A second selection of samples were cultured and subjected to irritating stimuli, whereby a chemical stimulus group was subjected to 2% SDS for 24 hours, a burn group was subjected to 100° C, contact for 90 seconds, and a UV irritation group was subjected to UV-B for 30 minutes. FIGS. 30A-30D illustrate insert images after staining with Masson's Trichrome for untreated, chemical-treated, burn-treated, and UV-treated skin tissues, respectively. […]

In data set [4] the test system is skin tissues. Kind of data set: Skin irritation: lactate dehydrogenase (LDH) release. The data set is classed as cell-based. The following applies: 2% SDS for 24 hours; compared to untreated samples. Here is the method:
A second selection of samples were cultured and subjected to irritating stimuli, whereby a chemical stimulus group was subjected to 2% SDS for 24 hours, a burn group was subjected to 100° C, contact for 90 seconds, and a UV irritation group was subjected to UV-B for 30 minutes. FIGS. 30A-30D illustrate insert images after staining with Masson's Trichrome for untreated, chemical-treated, burn-treated, and UV-treated skin tissues, respectively. FIG. 31A provides an analysis of collagen deposition using histopathological scoring to determine the effects of damage stimuli on each group. As a result of this analysis, both burn and UV irradiation groups were discovered to have reduced collagen deposition compared to the untreated group. […] FIG. 31B provides an analysis of lactate dehydrogenase (LDH) release, which is widely used as a marker for assessing cell death and toxicity. The analysis indicated a significant increase of LDH release from all treatment conditions compared to untreated samples.

For a further data set, the system named is skin tissue. Kind of data set: Tissue longevity analysis: media conditions judged by histology (epidermis and dermis structure) and culture survival. The data set is classed as cell-based, human. An excerpt: Table 5 provides a plurality of media mixtures applied to skin samples to assess the effects of various testing conditions on the skin tissue.

The record followed here is patent publication US20260002109A1, “SYSTEMS AND PROCESSES FOR SKIN TISSUE GROWTH AND ANALYSIS” (Outer Biosciences, Inc., priority 2023, published 2026).

Structures are written as SMILES.

In the case of `CCCCCCCCCCCCOS(=O)(=O)[O-].[Na+]` [SDS], the “barrier function by TEWL” value in data set [1] was “reduction in the barrier function”. In addition, in data set [2], the eczematous epidermis result is “moderate eczematous (atopic) epidermis”, the epidermal damage result was “significant epidermal as evidenced by widespread dyskeratotic cells” and the thickness of epidermis result is “pathological epidermal thickening (acanthosis)”. Besides, in the data set on skin tissues [3], the collagen deposition entry is listed as “No significant change in collagen deposition”. Also, in the data set with skin tissues [4], the LDH release result is on record as “highest LDH release”.

`[Ca+2].[Cl-].[Cl-]` [calcium chloride]: the “beneficial effect on skin samples” value in the data set on skin tissue (0.1 mM on the surface of skin samples) is “neither testing condition was observed to have any beneficial effect”; in the data set with skin tissue (0.5 mM and 1 mM in media) it was “neither testing condition was observed to have any beneficial effect”.
